In patent US9012483B2, “Use of L-Histidine and derivatives thereof” (priority 2011, dated 2015):
Entries after “also recorded” stand apart in the source; their conditions may differ. Where two headings read alike, the source gives them in different places. Marks after values point to notes of the source that are not given here.

Tests used:
[1] = Clinical signs in the pharmacokinetic study after oral histidine; format: in vivo, CD(SD)IGS BR rat; conditions: rat, up to 1000 mg/kg
Description: (§1) Rats were used to determine the pharmacokinetic parameters after administration of three different histidine doses (100, 500 and 1000 mg/kg, three animals for each group).

[2] = cited from earlier work
[3] = for changes in Gd^3+ content in liver and spleen: versus group 1; for % ID in femour, mean / Gadolinium content in femour, mean: p < 0.01 vs group 1; for Gadolinium content in skin, mean: p < 0.05 vs group 1
Description: L-Histidine was orally administered by gavage, while Omniscan® was intravenously administered.
On the day of scheduled sacrifice, animals were anesthetized with an inhalation agent, sevoflurane, at an respiratory concentration of 3% in induction and 1-2% in maintenance and bled after collection of blood from the abdominal aorta. After exsanguination, liver, spleen, femur and skin of all animals were excised, weighed and prepared for ICP-MS determination of gadolinium content. Sample digestion (spleen and femur) was performed by a microwave system (MARS-5 CEM Corporation).
Liver and skin samples were freeze-dried with a lyophilizer (Alpha-1-2LD Plus, CHRIST) after being frozen at −80° C. for at least 1 h. After drying, dehydrated livers were weighed and then ground in a mortar.
Gadolinium content in organs was reported as μg of Gd.

[4] = Pharmacokinetics of histidine in plasma after oral administration; format: in vivo, CD(SD)IGS BR rat; conditions: for Tmax / AUC(0-inf) / Cmax: male, CD(SD)IGS BR; for Tmax / AUC(0-inf) / Cmax / t1/2λz: rat plasma; for total plasma clearance: rat
Description: Aliquots of L-Histidine dihydrochloride powder, accurately weighted, were transferred into 5 and 10 mL volumetric flasks. MilliQ-water was used to dissolve the powder. Standard solution was prepared to obtain CAL samples and CQ samples. The range of the stock standard solution was from 3.46 to 343 μg/mL. All standard solutions were stored at +4° C., in the dark: under these conditions they were considered stable for up to one month.
CAL samples were prepared by using the standard solution at the concentration of 3.46, 34.3, 68.6, 173 and 343 μg/mL and QC samples by using the standard solution at the concentration of 14.3, 67.1, 143 and 268 μg/mL.
CAL and QC samples were prepared by mixing 10 μL of Histidine standard solution with […] of blank rat plasma.
(§2) To these samples 20 μL of trichloroacetic acid (16% w/v) were added to precipitate the plasma proteins. The tubes were vortexed for few seconds and centrifuged for 10 min at 2000 g at room temperature; to 90 μL of the clear supernatant 45 μL of a soaked solution of Sodium carbonate (200 mM) and 90 μL of derivatizing solution (4 mg/mL of Dansyl chloride) were added. The tubes were vortexed for few seconds and incubated under stirring for 30 minutes at 60° C. Five microliters of Methylamine Hydrochloride were added and after cooling for 15 minutes, ten microliters of the sample were injected into the HPLC equipment.
as §2, with “Test plasma samples (S) were prepared by adding 10 μL of Milli-Q water to 90 μL of undiluted plasma or 90 μL of plasma suitably diluted with blank plasma (if sample volume was not enough). To” for “To”, “equipment. All plasma samples collected during the study were stored at −20° C. until analysis.” for “equipment.”
• Species and strain: CD(SD)IGS BR rat • sex of animals: males • Weight and age at treatment: 306-376 g (10-14 weeks old) • Supplier: Charles River Laboratories, Calco (LC), Italy
as §1
Plasma concentrations of Histidine as a function of time after injection C(t), were analyzed by non-parametric methods using the computer program WIN-NONLIN 4.0.1. For the tested doses, a non-compartmental analysis was performed using the average plasma concentrations from 3 animals for each time point (except when indicated). For Cmax (peak plasma concentration) and the corresponding tmax ([…]) the observed values were reported. The terminal phase elimination rate constant (λz) was estimated by log-linear regression of those data points visually assessed to be in the terminal phase of the profile. At least three terminal plasma concentrations were used for estimating λz. The terminal elimination half life (t ½ λz, time required for a drug to decline to half of its original plasma value) was calculated as t ½ λz=In 2/λz. Area under the plasma concentration-time curve to the last observable plasma concentration (AUC(0 to t)) was calculated from observed data using the logarithmic trapezoidal method. Total area under the plasma concentration-time curve from zero to infinity (AUC(0 to ∞)) was estimated by AUC(0 to ∞) =AUC(0 to t) +ct/λz, where ct is the predicted concentration at the last quantified time point. AUC defines extent of drug exposure.

[5] = cited from earlier work; remark: listed apart in the source
[6] = test system: Gd(DTPA-BMA); experiment: Dissociation of Gd(DTPA-BMA) in artificial plasma, relaxivity at 20 MHz; format: physicochemical; conditions: pH 7.5, 37° C.
[7] = rat, oral histidine 4.38 mmol/kg and iv Omniscan 1 mmol/kg
[8] = test system: Gd(DTPA-BMA) and Gd(DTPA) complexes with Cu(II); experiment: Kinetics of transmetallation of Gd(DTPA) and Gd(DTPA-BMA) with Cu(II) in the presence of citrate and histidine (spectrophotometry, 300 nm); format: physicochemical; conditions: [GdL]=2.0 mM, [Cu]=0.1 mM, [cit]=2.0 mM, [His]=0.2-0.8 mM, pH 7.0, 25° C., 0.15 M NaCl
Description: In order to have some clues on the kinetics of a possible transmetallation reactions in the presence of citrate (an important counter-ion present in plasma and found to be highly interactive with Gd^3+) and increasing amounts of histidine, the rates of the following reactions have been studied: GdL+Cu^2++His+cit⇄CuL+Gd(cit)+His (1)
In the experiment, the concentration used for Gd^3+ complex (GdL), citrate and Cu^2+ were: 2.0, 2.0 and 0.1 mM, respectively, while the concentration of His was varied (0.2, 0.4, 0.6 and 0.8 mM).
The progress of the exchange reactions (1) has been studied by spectrophotometry (Cary 1E spectrophotometer) at 300 nm, with the use of 1.0 cm quartz cell at 25° C. in 0.15 M NaCl in the pH range 6-8. […]

[9] = test system: Cu(His)2; experiment: Exchange reaction between Gd(DTPA-BMA) and Cu(His)2 without and with citrate (UV spectrum); format: physicochemical; conditions: Cu(His)2 0.2 mM, Gd(DTPA-BMA) 2.0 mM, pH 6.5, 25° C., 0.15 M NaCl
Description: FIG. 3. The UV spectrum of Cu(His)2 in the presence of Gd(DTPA-BMA) excess (Panel A) and in the presence of citrate and Gd(DTPA-BMA) excess (Panel B). (Cu(His)2=0.2 mM, Gd(DTPA-BMA)=2.0 mM) (A). (Cu(His)2=0.2 mM, Gd(DTPA-BMA)=2.0 mM, Citrate=2.0 mM) (B). pH=6.5, 25° C., 0.15 M NaCl.
It is possible to conclude that in body fluids transmetallation reactions may take place between the DTPA-derivative Gd^3+ complexes and endogenous metal ions, like Cu^2+ and Zn^2+. The possibility of the transmetallation reactions can be predicted on the basis of the stability constants of complexes formed between the most important endogenous metals and ligands. The stability constants have been determined for the Gd^3+, Cu^2+ and Zn^2+ complexes of the DTPA, DTPA-BMA, citrate and histidine ligands. […] The species distribution calculations have been experimentally verified by following the exchange reactions between Gd(DTPA-BMA) and Cu(His)2 in the absence and presence of citrate.

[10] = group 2, histidine pretreatment at 30 min
[11] = group 2: oral histidine 4.38 mmol/kg 30 min before Omniscan 1 mmol/kg iv, 24 h
[12] = group 2: oral histidine 4.38 mmol/kg 30 min before Omniscan 1 mmol/kg iv, 24 h, listed as Histidine
[13] = group 2: oral histidine 4.38 mmol/kg 30 min before Omniscan 1 mmol/kg iv, 24 h, listed as histidine
[14] = histidine 30 min before Omniscan versus no histidine pretreatment

Which clinical signs [1] does the source give for `N[C@@H](Cc1c[nH]cn1)C(=O)O` [L-Histidine] here?
Its clinical signs is “No clinical signs were observed”.

What about the “time to peak levels after oral administration” value ([2]; L-Histidine in the salt form (HCl), oral route) of the same compound?
The value was 30 to 45 min.

What about the “AUC(0 to ∞)” value ([2]; healthy volunteers, single oral administration of Histidine at 100 mg/kg) of the same compound?
Its value is 477 µg·h/mL.

And the “% ID in liver, spleen and skin versus group 1” value [3, 10]?
Its value is “not significantly different”.

And the “changes in Gd^3+ content in liver and spleen” value [3, 10]?
The value was “no significant changes”.

What about the “% ID in liver, mean” value [3, 11] of the same compound?
Its value is 0.1094 % ID.

What about the “% ID in skin, mean” value [3, 11] of the same compound?
The value was 0.0067 % ID.

What about the “% ID in spleen, mean” value [3, 11] of the same compound?
The value was 0.00478 % ID.

What about the “Gadolinium content in liver, mean” value [3, 11] of the same compound?
The value was 20.7 nmol/g of tissue.

What about the “Gadolinium content in spleen, mean” value [3, 11] of the same compound?
The value was 20.0 nmol/g of tissue.

And the “% ID in femour, mean” value [3, 12]?
The value was 0.00166** % ID.

What about the “Gadolinium content in femour, mean” value [3, 12] of the same compound?
The value was 6.90** nmol/g of tissue.

What about the “% ID in femour, mean” value [3, 13] of the same compound?
Its value is 0.00166 % ID.

And the “Gadolinium content in femour, mean” value [3, 13]?
Its value is 6.90 nmol/g of tissue.

And the “Gadolinium content in skin, mean” value [3, 12]?
The value was 11.25* nmol/g of tissue.

And the “Gadolinium content in skin, mean” value [3, 13]?
The value was 11.25 nmol/g of tissue.

And the “changes in Gd^3+ content in liver and spleen” value ([3]; group 3, histidine pretreatment at 1 h)?
The value was “no significant changes”.

And the “decrease in Gd^3+ content in femur (nmol/g tissue)” value [3, 14]?
Its value is “about 40%”.

What about the “decrease of % ID in femour” value [3, 14] of the same compound?
Its value is “about 40%”.

And the “effect on Gd^3+ accumulation” value ([3]; histidine treatment 60 min before Omniscan administration)?
The value was “didn't show, in this model, any effect”.

What about the Tmax ([4]; 100 mg/kg) of the same compound?
Its Tmax is 0.5 h.

And the Tmax ([4]; 1000 mg/kg)?
Its Tmax is 0.5 h.

What about the AUC(0-inf) ([4]; Histidine 100 mg/kg) of the same compound?
Its AUC(0-inf) is 550 µg·h/mL.

And the Cmax ([4]; Histidine 100 mg/kg (0.438 mmol/kg))?
The Cmax was 9000 ng/mL.

And the AUC(0-inf) ([4]; Histidine 500 mg/kg)?
Its AUC(0-inf) is 630 µg·h/mL.

What about the Tmax ([4]; Histidine 500 mg/kg) of the same compound?
Its Tmax is 1 h.

And the Cmax ([4]; Histidine 500 mg/kg (2.192 mmol/kg))?
The Cmax was 20900 ng/mL.

What about the AUC(0-inf) ([4]; Histidine 1000 mg/kg) of the same compound?
Its AUC(0-inf) is 390 µg·h/mL.

What about the Cmax ([4]; Histidine 1000 mg/kg (4.38 mmol/kg)) of the same compound?
Its Cmax is 36000 ng/mL.

And the t1/2λz ([4]; Histidine 100 mg/kg (Table A))?
The t1/2λz was 51 h.

What about the t1/2λz ([4]; Histidine 500 mg/kg (Table A)) of the same compound?
Its t1/2λz is 47 h.

And the t1/2λz ([4]; Histidine 1000 mg/kg (Table A))?
The t1/2λz was 13 h.

And the total plasma clearance ([4]; 100 mg/kg)?
Its total plasma clearance is 3 mL/min/kg.

What about the total plasma clearance ([4]; 500 mg/kg) of the same compound?
The total plasma clearance was 13.2 mL/min/kg.

And the total plasma clearance ([4]; 1000 mg/kg)?
The total plasma clearance was 42.7 mL/min/kg.

What about the “serum parameters including protein bound zinc, serum and urinary zinc levels” value ([5]; human subjects, L-histidine up to 4 g/day, 15-days treatment) of the same compound?
Its value is “not shown to be grossly altered”.

And the adverse effects ([5]; humans, oral, up to 4-6 g/day for several days)?
The adverse effects was “neither important adverse effects nor minor inconveniences”.

And the “effect on the increase of relaxivity / extent of dissociation of Gd(DTPA-BMA)” value ([6]; histidine 0.5 mM and 1.0 mM added to artificial plasma with 1.0 mM Gd(DTPA-BMA))?
Its value is “concentration dependent drop in the increase of the relaxivity values; also recorded: significantly decreases”.

And the “mortality and clinical signs” value [7]?
Its value is “No mortalities nor changes in clinical signs”.

What about the “extent (conversion) of the transmetallation reactions, CuL formed” value ([8]; listed as Histidine) of the same compound?
The value was “decrease”.

What about the “rates of the transmetallation reactions” value ([8]; listed as Histidine) of the same compound?
The value was “decrease”.

And the “extent (conversion) of the transmetallation reactions, CuL formed” value ([8]; listed as histidine)?
The value was “significantly decrease; also recorded: decrease with increasing concentration of histidine”.

What about the “rates of the transmetallation reactions” value ([8]; listed as histidine) of the same compound?
The value was “significantly decrease; also recorded: decrease with increasing concentration of histidine”.

Which “changes of the UV spectrum of Cu(His)2 (transmetallation)” value ([9]; citrate 2.0 mM) does the source give for `CNC(=O)CN(CCN(CCN(CC(=O)[O-])CC(=O)NC)CC(=O)[O-])CC(=O)[O-].[Gd+3]` [Omniscan ®, Gadodiamide] here?
The value was “the transmetallation reaction takes place”.

What about the “changes of the UV spectrum of Cu(His)2 (transmetallation)” value ([9]; no citrate) of the same compound?
Its value is “no changes”.

And the “relaxivity values as a function of time (dissociation of the complex)” value ([6]; 1.0 mM Gd(DTPA-BMA) in artificial plasma, no added histidine)?
The value was “relaxivity values increase as a function of time”.
